Consider five molecules from US5288709A, “Erythromycin derivatives” (priority 1991, dated 1994).

≈ marks a conversion by molar mass, not a printed value. Where “and” joins values, the source holds several entries; their conditions need not be identical. Identical values can stand only once. Like-named read-outs stand apart in the source and are kept apart here.

Series [1] is described as follows: Pharmacokinetic evaluation in dogs after a 10 mg/kg dose. The note with it: dog, plasma; for half-life: t1/2 (biological half life); for bioavailability: % ABS (percent absorbance), from AUC (absolute bioavailability); for Cmax: Cmax (maximum concentration in blood); for Tmax: Tmax (time to achieve maximum concentration in blood).
Procedure: (§4) Selected compounds of the present invention were formulated as solutions in dilute lactobionic acid at a concentration of 10 or 20 mg/ml. Groups of two or three dogs were given a 10 mg macrolide/kg intravenous bolus or oral dose (by gavage). Plasma samples, obtained at selected time points from 15 minutes to 32 hours after dosing, were assayed using reverse phase HPLC with electrochemical detection (parent drug) and microbiological assay (total microbiological activity). Plasma concentration time curves were subjected to multi exponential curve fitting to determine terminal elimination half life values. Area under the curve (AUC) values, calculated by the trapezoidal method, were used to calculate absolute bioavailability.
For series [2], the system named is Staphylococcus aureus (NCTC 10649). Kind of series: In-vivo acute mouse protection assay. On the set-up: species or system Staphylococcus aureus; female Swiss albino mice. The note with it: dosed 1 and 5 h post-infection, observed 7 days. On the procedure: (§1) An acute mouse protection test was conducted on ten mice with each of three concentrations of selected compounds of the invention. Each concentration was a four-fold dilution of the previous concentration. The initial concentration will vary with the microorganism with which the mouse is challenged.
(§2) The acute mouse protection test was conducted on female, Swiss albino mice, 18-20 grams in weight. […] To check the potency of the inoculum, a titration of the indicated test organism was carried out in control animals. The titration determines the LD50 for a particular microorganism. The treatment groups of animals were dosed orally, by gavage, or subcutaneously with the test compounds at 1 and 5 hours post-infection and observed for 7 days. The ED50 were calculated using the mortality data collected.

For series [3], the system named is Streptococcus pneumoniae (ATCC 6303). Kind of series: In-vivo acute mouse protection assay. Set-up: species or system Streptococcus pneumoniae; female Swiss albino mice. Particulars: dosed 1 and 5 h post-infection, observed 7 days. On the procedure: as §1, §2
The next series can be described thus: in vivo. Particulars: dog, iv, 10 mg/kg, t1/2 (biological half life), microbiological assay.
The subject of series [4] is Haemophilus influenzae ATCC 43095. Kind of series: Treatment of induced otitis media in gerbils. The format is in vivo, Haemophilus influenzae; female mongolian gerbils. Particulars: read-out: ED50 (dose required to reduce CFUs by 90%). On the procedure: The effectiveness of one of the compounds of the present invention in treating otitis media was examined as desribed below. A five hour log phase culture of Haemophilus influenzae ATCC 43095 was prepared in brain heart infusion broth (BHIB) supplemented with 4% Fildes enrichment and 0.001% nicotinamide adenine dinucleotide (NAD; commerically available from Sigma Chemical Co., St. Louis, Missouri).
Immediately prior to treatment with the test compounds, middle ear aspirates from five gerbils were obtained as described below and cultured to determine the level of infection at the onset of therapy. The test compounds produced by Example 19, (9S,11S)-11-Amino-9-deoxo-11,12-deoxy-9,12-epoxyerythromycin A, was administered orally by gavage in a 0.5 mL volume beginning 17 hours post infection and continuing three times daily for two days to groups of five gerbils. As a standard, a second group of gerbils was similarly treated using erythromycin. Eighteen hours after the final treatment, the gerbils were euthanized, 0.02 mL of BHIB injected into the middle ear bulla through the tympanic membrane, and middle ear aspirates collected and cultured.
The aspirates were diluted in BHIB and plated in duplicate onto chocolate agar. Colonies were counted after overnight incubation, and bacterial counts were expressed as colony forming units (CFUs) per middle ear. […]

Series [5] deals with Staphylococcus aureus 642A. Kind of series: In-vitro antimicrobial activity primary screen (agar dilution MIC). The format is cell-based. Particulars: BHI agar, 20-24 h. The gist of the method: (§3)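 Minimum inhibitory concentrations come from twelve-step agar dilution in BHI medium. Strains, diluted 1:100 or 1:10 if slow-growing, were replicator-plated and incubated 20-24 h, 35-37° C; haze or sparse colonies counted as inhibition.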

Series [6] deals with Staphylococcus aureus NCTC 10649. Described as above. The format is cell-based. The note with it: BHI agar, 20-24 h. In a few lines:
as §3

For series [7], the system named is Haemophilus influenzae (ATCC 43095). Kind of series: In-vivo acute mouse protection assay. Set-up: species or system Haemophilus influenzae; female Swiss albino mice. The note with it: dosed 1 and 5 h post-infection, observed 7 days. On the procedure: as §1, §2
[8] abbreviates: iv, IV 10 mg/kg, HPLC (parent drug).
Where [9] appears, read: iv, IV 10 mg/kg, microbiological assay.
The mark [10] stands for this setting: po, oral 10 mg/kg, HPLC (parent drug).
The mark [11] stands for this setting: po, oral 10 mg/kg, microbiological assay.
Setting [12] is: Staphylococcus aureus, NCTC10649, 168 h, oral, read-out: ED50.
The mark [13] stands for this setting: Staphylococcus aureus, NCTC10649, sc, 168 h, subcutaneous, read-out: ED50.
The mark [14] stands for this setting: ATCC6303, 168 h, oral, read-out: ED50.
The mark [15] stands for this setting: ATCC6303, sc, 168 h, subcutaneous, read-out: ED50.
The mark [16] stands for this setting: ATCC43095, 168 h, oral, read-out: ED50.

Procedure for in vivo: as §4

For the molecule `CC[C@H]1OC(=O)[C@H](C)[C@@H](O[C@H]2C[C@@](C)(OC)[C@@H](O)[C@H](C)O2)[C@H](C)[C@@H](O[C@@H]2O[C@H](C)C[C@H](N(C)C)[C@H]2O)[C@](C)(O)C[C@@H](C)[C@@H]2O[C@@]1(C)C(=O)[C@H]2C` [Example 5, (9S)-9-Deoxo-11,12-dideoxy-9,12-epoxy-11-oxoerythromycin A], the half-life is 12.2 h in series [1] (setting [8]), 14.7 h in series [1] (setting [9]), 10.2 h in series [1] (setting [10]) and 10.5 h in series [1] (setting [11]). Moreover, the bioavailability was 81% in series [1] (setting [10]) and 76% in series [1] (setting [11]). Further, the Cmax in series [1] (setting [10]) and in series [1] (setting [11]) was 2.5 µg/mL in each case. For the same molecule, in series [1] (setting [10]), the Tmax was found to be 4 h. Also, the median effective dose (ED50) in series [2] (setting [12]) is 25.2 mg/kg; in series [2] (setting [13]), 22.6 mg/kg; in series [3] (setting [14]), 23.7 mg/kg; in series [3] (setting [15]) it was below 0.4 mg/kg.

With `CC[C@H]1OC(=O)[C@H](C)[C@@H](O[C@H]2C[C@@](C)(OC)[C@@H](O)[C@H](C)O2)[C@H](C)[C@@H](O[C@@H]2O[C@H](C)C[C@H](N(C)C)[C@H]2O)[C@](C)(O)C[C@@H](C)C(=O)[C@H](C)[C@@H](O)[C@]1(C)O` [Std, Erythromycin A, reference compound], the bioavailability in series [1] (setting [11]) is 72%. The Cmax in series [1] (setting [11]) came to 2.5 µg/mL. Moreover, the Tmax in series [1] (setting [11]) turned out to be 0.3 h. In addition, the half-life in “in vivo” is 1.4 h. In addition, the ED50 in series [2] (Staphylococcus aureus, NCTC10649, sc, 168 h, subcutaneous) is 12.9 mg/kg; in series [2] (subcutaneous, 10080 min), 8.3 mg/kg and 11.6 mg/kg; in series [4] (ATCC43095, po), above 300 mg/kg; in series [7] (ATCC43095, sc, 168 h, subcutaneous), 29.7 mg/kg. In addition, the MIC in series [5] amounted to 0.1 microgram/mL; in series [5] (Staphylococcus aureus, 642A, 24 h), 0.2 mg/L (≈ 0.273 µM); in series [6], 0.1 microgram/mL; in series [6] (Staphylococcus aureus, NCTC10649, 24 h) it was 0.2 mg/L (≈ 0.273 µM).

As to `CC[C@H]1OC(=O)[C@H](C)[C@@H](O[C@H]2C[C@@](C)(OC)[C@H](N)[C@H](C)O2)[C@H](C)[C@@H](O[C@@H]2O[C@H](C)C[C@H](N(C)C)[C@H]2O)[C@](C)(O)C[C@@H](C)[C@@H]2O[C@@]1(C)[C@@H](O)[C@H]2C` [Example 13, (4"R,9S,11S) 4"-Amino-9-deoxo-4",12-dideoxy-9,12-epoxyerythromycin A], the half-life was 9.9 h in series [1] (setting [8]), 18.3 h in series [1] (setting [9]), 9.6 h in series [1] (setting [10]) and 9.1 h in series [1] (setting [11]). Also, the bioavailability in series [1] (setting [10]) turned out to be 68%; in series [1] (setting [11]) it was 58%. Besides, the Cmax in series [1] (setting [10]) stood at 1.6 µg/mL; in series [1] (setting [11]) it was 1.7 µg/mL. For the same molecule, the Tmax in series [1] (setting [10]) and in series [1] (setting [11]) was 0.4 h each time. The ED50 in series [2] (setting [12]) is 126 mg/kg; in series [2] (setting [13]), 39.6 mg/kg; in series [3] (setting [14]), 84.8 mg/kg; in series [3] (ATCC6303, sc, 168 h, subcutaneous) it was 4 mg/kg.

For `CC[C@H]1OC(=O)[C@H](C)[C@@H](O[C@H]2C[C@@](C)(OC)[C@@H](O)[C@H](C)O2)[C@H](C)[C@@H](O[C@@H]2O[C@H](C)C[C@H](N(C)C)[C@H]2O)[C@](C)(O)C[C@@H](C)[C@@H]2O[C@@]1(C)[C@@H](O)[C@H]2C` [Example 4, (9S,11S)-9-Deoxo-12-deoxy-9,12-epoxyerythromycin A], the half-life in series [1] (setting [8]) was 2.9 h; in series [1] (setting [9]) it was 2.9 h; in series [1] (setting [10]) it was 2.9 h; in series [1] (setting [11]) it was 2.7 h. Further, the bioavailability in series [1] (setting [10]) amounted to 69%; in series [1] (setting [11]), 75%. Moreover, the Cmax in series [1] (setting [10]) is 3.9 µg/mL; in series [1] (setting [11]), 4.3 µg/mL. The Tmax was 0.25 h in series [1] (setting [10]) and 0.4 h in series [1] (setting [11]). The ED50 is 55 mg/kg in series [2] (setting [12]); 22.6 mg/kg in series [2] (setting [13]); 238 mg/kg in series [7] (setting [16]); 11.3 mg/kg in series [7] (ATCC43095, sc, 168 h, subcutaneous, read-out: ED50); 20.4 mg/kg in series [3] (setting [14]); 1.3 mg/kg in series [3] (setting [15]).

As to `CC[C@H]1OC(=O)[C@H](C)[C@@H](O[C@H]2C[C@@](C)(OC)[C@@H](O)[C@H](C)O2)[C@H](C)[C@@H](O[C@@H]2O[C@H](C)C[C@H](N(C)C)[C@H]2O)[C@](C)(O)C[C@@H](C)[C@@H]2O[C@@]1(C)[C@@H](N)[C@H]2C` [Example 19, (9S,11S)-11-Amino-9-deoxo-11,12-deoxy-9,12-epoxyerythromycin A], the half-life in series [1] (setting [8]) was 7.5 h; in series [1] (setting [9]), 6.6 h; in series [1] (setting [10]) it was 8.1 h; in series [1] (setting [11]), 5.8 h. Further, the bioavailability in series [1] (setting [10]) turned out to be 59%; in series [1] (setting [11]), 67%. Also, the Cmax in series [1] (setting [10]) stood at 3.2 µg/mL; in series [1] (setting [11]), 3.3 µg/mL. Besides, the Tmax in series [1] (setting [10]) is 0.25 h; in series [1] (setting [11]) it was 0.4 h. Besides, the ED50 in series [2] (setting [12]) is 75.4 mg/kg; in series [2] (setting [13]), 20.7 mg/kg; in series [4] (ATCC43095, gerbil, oral gavage three times daily for two days from 17 h post infection) it was 46.5 mg/kg; in series [7] (setting [16]), 101 mg/kg; in series [3] (setting [14]), below 9.4 mg/kg; in series [3] (setting [15]), 1.1 mg/kg.
